Test results as given in patent US9963462B2 (priority 2015, dated 2018).
pIC50: −log10 of the molar value.

How the values were obtained:
[1] = target: SNAP-hSPR (sepiapterin reductase, SPR) (Homo sapiens, UniProt P35270); assay: biochemical; assay type: binding; conditions: terbium labelled SNAP-hSPR / SSZ labelled SNAP-EGFP; read-out: hTR-FRET IC50
[2] = system: BH4 levels in SK-N-BE (2) cells; assay: SKN-N-BE (2) cellular assay, BH4 levels by LC-MS; assay type: cell-based; conditions: Homo sapiens, SKNBE2, read-out: SK-N-BE(2) IC50, SK-N-BE (2) cells, BH4 levels by LC-MS
[3] = system: BH4 production in human peripheral blood mononuclear cells (PBMCs); assay: hPBMC assay, inhibition of BH4 production by LC-MS (anti-CD3/anti-CD28 stimulated); assay type: cell-based; conditions: PBMC, read-out: hPBMC IC50

Chain of SNAP-hSPR (sepiapterin reductase, SPR) (P35270 whole entry): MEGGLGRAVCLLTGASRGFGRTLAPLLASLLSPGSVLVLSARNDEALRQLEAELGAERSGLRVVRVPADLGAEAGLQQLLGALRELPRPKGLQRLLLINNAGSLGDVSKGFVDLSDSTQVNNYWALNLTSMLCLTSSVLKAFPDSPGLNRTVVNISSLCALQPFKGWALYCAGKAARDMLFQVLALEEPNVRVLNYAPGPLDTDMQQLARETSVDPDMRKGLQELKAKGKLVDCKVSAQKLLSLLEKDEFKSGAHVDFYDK

SMILES	pIC50 [1]	pIC50 [2]	pIC50 [3]
Cc1c(C(=O)N2CCN(c3cccc(C(F)(F)F)c3)CC2)cnn1-c1nn2cccc2c(=O)[nH]1 [Q-0840]	8.52	6.70	–
Cc1c(C(=O)N2C[C@H]3CN(C(=O)OC(C)(C)C)C[C@H]32)cnn1-c1nn2cccc2c(=O)[nH]1 [Q-0842]	8.70	6.15	–
Cc1c(C(=O)N2CCN(c3ccccn3)CC2)cnn1-c1nn2cccc2c(=O)[nH]1 [Q-0843]	9.00	6.70	–
Cc1c(C(=O)N2CCC3C(C2)C3C(F)(F)F)cnn1-c1nn2cccc2c(=O)[nH]1 (centres unmarked) [Q-0844]	9.00	6.70	–
Cc1c(C(=O)N2CCN(c3ccc(C#N)cn3)CC2)cnn1-c1nn2cccc2c(=O)[nH]1 [Q-0845]	8.52	6.40	–
Cc1c(C(=O)N2CC3CN(c4ccccc4)CC3C2)cnn1-c1nn2cccc2c(=O)[nH]1 (centres unmarked) [Q-0846]	8.70	6.70	–
Cc1c(C(=O)N2CC3CN(C)CC3C2)cnn1-c1nn2cccc2c(=O)[nH]1 (centres unmarked) [Q-0847]	7.70	5.06	–
Cc1c(C(=O)N2CCC3(CCNC3=O)CC2)cnn1-c1nn2cccc2c(=O)[nH]1 [Q-0848]	8.70	5.00	–
Cc1c(C(=O)N2CCC(NC(=O)OC(C)(C)C)(C(F)(F)F)C2)cnn1-c1nn2cccc2c(=O)[nH]1 (centres unmarked) [Q-0852]	8.70	6.10	–
Cc1c(C(=O)N2CCn3cnnc3C2)cnn1-c1nn2cccc2c(=O)[nH]1 [Q-0853]	7.52	5.00	–
Cc1c(C(=O)N2C3CCC2CN(c2ccc(C(F)(F)F)cn2)C3)cnn1-c1nn2cccc2c(=O)[nH]1 [Q-0854]	8.52	6.70	–
Cc1c(C(=O)N2CCC(C(C#N)C3CC3)CC2)cnn1-c1nn2cccc2c(=O)[nH]1 (centres unmarked) [Q-0855]	9.00	7.00	–
Cc1c(C(=O)N2CCN3CCC[C@H]3C2)cnn1-c1nn2cccc2c(=O)[nH]1 [Q-0856]	8.40	5.96	–
Cc1c(C(=O)N2C[C@@H]3CN(C(=O)OC(C)(C)C)C[C@@H]32)cnn1-c1nn2cccc2c(=O)[nH]1 [Q-0857]	8.52	6.10	–
Cc1c(C(=O)N2CCn3c(nnc3C(F)(F)F)C2)cnn1-c1nn2cccc2c(=O)[nH]1 [Q-0859]	7.70	5.08	–
Cc1c(C(=O)N2CCC3(CC2)CC3C(=O)N2CCOCC2)cnn1-c1nn2cccc2c(=O)[nH]1 (centres unmarked) [Q-1070]	8.70	–	6.70
Cc1c(C(=O)N2CCC2c2ccc(Cl)cc2)cnn1-c1nn2cccc2c(=O)[nH]1 (centres unmarked) [Q-1071]	8.22	–	7.49
CC[C@@H](C#N)C1CCN(C(=O)c2cnn(-c3nc4c(c(=O)[nH]3)CCC4)c2C)CC1 [Q-1072]	8.70	–	7.26
C=CCC(C#N)C1CCN(C(=O)c2cnn(-c3nc4c(c(=O)[nH]3)CCC4)c2C)CC1 (centres unmarked) [Q-1073]	8.52	–	7.26
Cc1c(C(=O)N2CCC(c3noc(C(F)(F)F)n3)CC2)cnn1-c1nn2cccc2c(=O)[nH]1 [Q-1074]	9.00	–	7.66
Cc1c(C(=O)N2CCC(c3noc(C(F)(F)F)n3)CC2)cnn1-c1nc2c(c(=O)[nH]1)CCC2 [Q-1075]	8.70	–	7.77
Cc1c(C(=O)N2CCC(c3nccs3)CC2)cnn1-c1nc2c(c(=O)[nH]1)CCC2 [Q-1076]	9.00	–	7.46

SMILES	pIC50 [1]	pIC50 [2]	pIC50 [3]
Cc1c(C(=O)N2CCC3(CC2)CC3C(=O)N2CCOCC2)cnn1-c1nc2c(c(=O)[nH]1)CCC2 (centres unmarked) [Q-1077]	8.30	–	6.80
Cc1c(C(=O)N2CCc3nc(C(F)(F)F)sc3C2)cnn1-c1nn2cccc2c(=O)[nH]1 [Q-1078]	8.30	–	7.44
Cc1c(C(=O)N2CCC(c3nc(-c4ccccc4)co3)CC2)cnn1-c1nc2c(c(=O)[nH]1)CCC2 [Q-1079]	8.52	–	7.13
Cc1c(C(=O)N2CCC(c3nc(-c4ccccc4)co3)CC2)cnn1-c1nn2cccc2c(=O)[nH]1 [Q-1080]	8.70	–	7.60
Cc1c(C(=O)N2CC3CCCC(C2)N3CC(F)(F)F)cnn1-c1nc2c(c(=O)[nH]1)CCC2 [Q-1081]	8.70	–	6.89
Cc1c(C(=O)N2CC(N3CC(C(F)(F)F)C3)C2)cnn1-c1nn2cccc2c(=O)[nH]1 [Q-1082]	8.40	–	6.92
Cc1c(C(=O)N2C3CC2CN(CC(F)(F)F)C3)cnn1-c1nn2cccc2c(=O)[nH]1 [Q-1083]	9.00	–	7.17
Cc1c(C(=O)N2CCC(c3nc(-c4cccnc4)cs3)CC2)cnn1-c1nc2c(c(=O)[nH]1)CCC2 [Q-1084]	8.70	–	7.89
Cc1c(C(=O)N2CCC(C(=O)N3CCC3)(C(F)(F)F)CC2)cnn1-c1nn2cccc2c(=O)[nH]1 [Q-1085]	9.00	–	7.20
Cc1c(C(=O)N2CCC(C(=O)N3CCCCC3)(C(F)(F)F)CC2)cnn1-c1nn2cccc2c(=O)[nH]1 [Q-1086]	9.00	–	7.08
Cc1c(C(=O)N2CCC(C3(C#N)CCC3)CC2)cnn1-c1nc2c(c(=O)[nH]1)CCC2 [Q-1087]	8.70	–	7.54
Cc1c(C(=O)N2CCC3(CC2)CC3C(=O)N2CCC2)cnn1-c1nn2cccc2c(=O)[nH]1 (centres unmarked) [Q-1088]	8.40	–	6.54
Cc1c(C(=O)N2CCC3(CC2)CC3C(=O)N2CCC2)cnn1-c1nc2c(c(=O)[nH]1)CCC2 (centres unmarked) [Q-1089]	8.52	–	6.46
Cc1c(C(=O)N2CCC(c3nc(C(N)=O)cs3)CC2)cnn1-c1nc2c(c(=O)[nH]1)CCC2 [Q-1091]	8.70	–	6.89
Cc1c(C(=O)N2CCC(O)(C3(C#N)CC3)CC2)cnn1-c1nn2cccc2c(=O)[nH]1 [Q-1092]	9.00	–	6.48
Cc1c(C(=O)N2CCC(c3nc(C#N)cs3)CC2)cnn1-c1nn2cccc2c(=O)[nH]1 [Q-1093]	9.00	–	7.02
Cc1c(C(=O)N2C3CCC2CN(C2CC2)C3)cnn1-c1nn2cccc2c(=O)[nH]1 [Q-1094]	9.00	–	7.00
C=C(C1CCN(C(=O)c2cnn(-c3nn4cccc4c(=O)[nH]3)c2C)CC1)C(F)(F)F [Q-1095]	9.00	–	7.57
C=C(C1CCN(C(=O)c2cnn(-c3nc4c(c(=O)[nH]3)CCC4)c2C)CC1)C(F)(F)F [Q-1096]	9.00	–	7.74
Cc1c(C(=O)N2CCC(c3nc(-c4cccnc4)cs3)CC2)cnn1-c1nn2cccc2c(=O)[nH]1 [Q-1097]	9.00	–	7.62
Cc1c(C(=O)N2CCC(CCCF)C2)cnn1-c1nn2cccc2c(=O)[nH]1 (centres unmarked) [Q-1098]	9.00	–	6.68
Cc1c(C(=O)N2CCC(c3nc(-c4ccccn4)cs3)CC2)cnn1-c1nn2cccc2c(=O)[nH]1 [Q-1099]	9.00	–	7.22

SMILES	pIC50 [1]	pIC50 [2]	pIC50 [3]
Cc1c(C(=O)N2CCC(c3nc(-c4ccccn4)cs3)CC2)cnn1-c1nc2c(c(=O)[nH]1)CCC2 [Q-1100]	9.00	–	7.51
Cc1c(C(=O)N2CCC(c3nc(-c4ccncc4)cs3)CC2)cnn1-c1nn2cccc2c(=O)[nH]1 [Q-1101]	9.00	–	7.39
CCC(C#N)C1(F)CCN(C(=O)c2cnn(-c3nc4c(c(=O)[nH]3)CCC4)c2C)CC1 (centres unmarked) [Q-1102]	9.00	–	7.24
CCC(C#N)C1=CCN(C(=O)c2cnn(-c3nc4c(c(=O)[nH]3)CCC4)c2C)CC1 (centres unmarked) [Q-1103]	9.00	–	7.00
Cc1c(C(=O)N2CCC(c3nc(C#N)cs3)CC2)cnn1-c1nc2c(c(=O)[nH]1)CCC2 [Q-1104]	8.52	–	6.96
Cc1c(C(=O)N2CCC(c3ccc(F)nc3)CC2)cnn1-c1nn2cccc2c(=O)[nH]1 [Q-1105]	9.00	–	7.74
Cc1c(C(=O)N2CC3CC(C2)N3CC(F)(F)F)cnn1-c1nn2cccc2c(=O)[nH]1 [Q-1106]	9.00	–	7.03
Cc1c(C(=O)N2C3CCC2CN(c2nccs2)C3)cnn1-c1nn2cccc2c(=O)[nH]1 [Q-1107]	9.00	–	7.24
Cc1c(C(=O)N2CCC(c3nc(C(F)(F)F)cs3)CC2)cnn1-c1nn2cccc2c(=O)[nH]1 [Q-1108]	9.00	–	7.30
Cc1c(C(=O)N2CC3CCCC(C2)C3(O)C(F)(F)F)cnn1-c1nn2cccc2c(=O)[nH]1 (centres unmarked) [Q-1109]	9.00	–	7.34
C=CCC(C#N)(CC=C)C1CCN(C(=O)c2cnn(-c3nn4cccc4c(=O)[nH]3)c2C)CC1 [Q-1110]	8.70	–	7.37
Cc1c(C(=O)N2CCC(c3cccnc3Cl)CC2)cnn1-c1nn2cccc2c(=O)[nH]1 [Q-1111]	9.00	–	7.82
CCC(=O)C1CCN(C(=O)c2cnn(-c3nn4cccc4c(=O)[nH]3)c2C)CC1 [Q-1112]	9.00	–	7.43
CCC(=O)C1CCN(C(=O)c2cnn(-c3nc4c(c(=O)[nH]3)CCC4)c2C)CC1 [Q-1113]	9.00	–	7.80
Cc1c(C(=O)N2C3CCC2CN(C2CCC2)C3)cnn1-c1nn2cccc2c(=O)[nH]1 [Q-1114]	9.00	–	7.62
Cc1c(C(=O)N2CCC(c3ccc(F)cn3)CC2)cnn1-c1nn2cccc2c(=O)[nH]1 [Q-1115]	9.00	–	7.35
Cc1c(C(=O)N2CCC(c3ccc(Cl)nc3)CC2)cnn1-c1nn2cccc2c(=O)[nH]1 [Q-1116]	9.00	–	7.12
Cc1c(C(=O)N2CCC(c3cccc(F)n3)CC2)cnn1-c1nn2cccc2c(=O)[nH]1 [Q-1117]	9.00	–	7.70
Cc1c(C(=O)N2CCCC(O)(C(F)(F)F)CC2)cnn1-c1nn2cccc2c(=O)[nH]1 (centres unmarked) [Q-1118]	9.00	–	6.96
Cc1c(C(=O)N2CCCC(F)(F)CC2)cnn1-c1nn2cccc2c(=O)[nH]1 [Q-1119]	8.70	–	6.43
